One assay concerns ex vivo hearts. Briefly: Functional recovery of ex vivo hearts after global ischemia (left ventricle pressure, dP/dt, perfusion pressure). More on the design: species or system Mice or rats. Particulars: 500 nM peptide prior to 30 minute global ischemia; 30 minute reperfusion. As for the experimental part: In another study in support of the invention, the functional recovery of ex vivo hearts after an ischemic event was evaluated by monitoring, the isovolumic left ventricle pressure (LVP) at a constant pacing (3.3 Hz) and at a constant coronary flow (10 mL/min), as described in Example 1. Prior to the ischemic event, the hearts were treated with 500 nM ψεRACK (SEQ ID NO:2) or with scrambled ψεRACK peptide (SEQ ID NO:4). After the 30 minute global ischemia, the hearts were monitored during a 30 minute reperfusion period.
Mice or rats were anesthetized with i.p. avertin, and their hearts were rapidly removed and cannulated via the aorta for reperfusion as described in the art (Colbert et al, 1997). Care was taken to have the hearts perfused within 90 seconds of removal. The left ventricular pressure and real-time derivative (dP/dt) were monitored via a catheter placed in the ventricular apex. Hemodynamic parameters were archived every 20 seconds throughout the procedure. The hearts were perfused with oxygenated Krebs-Henseleit solution comprised of, in […], NaCl 120; KCl 5.8; NaHCO3 25; NaH2O4 1.2; MgSO4 1.2; CaCl2 1.0; and dextrose 10, pH 7.4 at 37 C.
After a 10-20 minute equilibration period, the hearts were treated with ψεRACK peptide (SEQ ID NO:2) or with scrambled ψεRACK peptide (SEQ ID NO:4) for 20 minutes. […]

In assay [1] the test system is pig heart. Briefly: In vivo administration during LAD balloon occlusion in pigs: infarct area of area at risk. Particulars: for infarct of area at risk: about 20 μg peptide during first 10 minutes of 30 minute occlusion, hearts analysed five days later, average, p<0.005. As for the experimental part: In another study in support of the invention, the ability of ψεRACK peptide to protect tissue from damage due to an ischemic or hypoxic event was evaluated by administering the peptide in vivo. As detailed in Example 3, ψεRACK peptide (SEQ ID NO:2) or scrambled ψεRACK peptide (SEQ ID NO:4) was administered to adult pigs during the first 10 minutes of a 30 minutes ischemic insult. Five days later, the hearts were analyzed for tissue damage.
Young adult female pigs, 35-40 kg in weight, were anesthetized and a catheter was introduced through the carotid artery into the heart. Using conventional intervention cardiology techniques, a wire was placed through a catheter and into the left anterior descending artery (LAD): A balloon was run over this wire to a site of occlusion where it was then inflated to block blood flow for 30 minutes. During the first 10 minutes of the ischemic insult, either the control scrambled ψεRACK peptide (SEQ ID NO:4, n=5) or the biologically active RACK peptide (SEQ ID NO:2, n=5) was delivered by diffusion through the balloon directly downstream of the occlusion. Approximately 20 μg peptide (˜400 ng per kg body weight) was administered.
After 30 minutes of occlusion, the balloon was removed and pigs were left to recover from surgery. Five days later, the pigs were euthanized and hearts were harvested. After heart removal, the LAD was occluded. With the occlusion in place, Evans Blue dye, which stains all areas not at risk of infarct in blue while leaving all areas with no access to blood flow red, was infused. Hearts were then cut into slices and stained with a tetrazolium red dye which stains all live areas red and infarcted dead tissue in white. Each heart had multiple tissue slices with distinctive areas marking the area at risk for ischemia and the infarcted area. From this the percent infarct per area at risk for each slice and for the entire heart was determined.

For assay [2], the system named is pig heart. Briefly: Left ventricurogram (ejection fraction) in pigs after LAD occlusion. It counts as in vivo. As for the experimental part: In another study, left ventricurogram (LVG) was performed in pigs (n=5) at three time points: (1) before occlusion of left anterior descending artery by balloon catheter (before occlusion); (2) immediately after reperfusion with 5 μM/10 mL of ψεRACK (post ψεRACK); and (3) before sacrifice five days later (5 days post), using 6 Fr. of pig-tail catheter. LVG was recorded by two views, right anterior oblique and left anterior oblique. Ejection fraction (EF), the percent of blood ejected in a beat, during maximum contraction, of the total maximum present in the left ventricle, was analyzed by the software, Plus Plus (Sanders Data Systems), and the averages of two views were evaluated. […] Accordingly, delivery of a ψεRACK peptide in vivo after ischemia is effective to reduce cell and tissue damage, as evidenced by an ejection fraction at least 10% greater than that of untreated cells or tissues.

A further assay deals with whole rat hearts. Briefly: Ex vivo administration of ψεRACK after ischemia: CPK release in perfusate during reperfusion. To be noted: 0.5 μM peptide for first 20 minutes of reperfusion after 45 minutes ischemia; 60 minute period; FIG. 3B. As for the experimental part: In another study performed in support of the invention, ψεRACK was administered to hearts ex vivo after a prolonged ischemic period and was effective to provide protection from ischemic injury. As described in Example 2, whole rat hearts were perfused on a Langendorff apparatus. After a 30 minute equilibration period, global ischemia was induced by stopping fluid flow for 45 minutes. The hearts were then reperfused with or without ψεRACK peptide for 20 minutes followed by 40 minutes perfusion without peptide. During the 60 minutes following ischemia (20 minutes of peptide reperfusion plus 40 minutes perfusion), the CPK activity in the perfusate was analyzed.
Rat hearts were prepared as described in Example 1. After a 30 minute equilibration period, global ischemia was induced by interrupting fluid flow for 45 minutes. The hearts were then reperfused with 0.5 μM of ψεRACK peptide for 20 minutes, followed by 40 minutes of reperfusion without the peptide. As a control, some hearts were left untreated after ischemia. During the 60 minute period following ischemia, ischemia-induced cell damage was determined by monitoring the creatine phosphokinase (CPK) activity (absorbance at 520 nm) in the perfusate collected during reperfusion.

A further assay relates to ex vivo rat hearts. Briefly: Ex vivo administration of ψεRACK prior to ischemia: CPK release in perfusate of Langendorff-perfused hearts. Particulars: 0.5 μM peptide for 20 minutes prior to 45 minutes global ischemia; 30 minute reperfusion; FIG. 1A. As for the experimental part:
Animals were anesthetized as described in Example 1 and their hearts were rapidly removed and cannulated for perfusion on a Langendorff apparatus. Hemodynamic parameters were monitored until stabilized, typically for 10-20 minutes. After equilibration, ψεRACK peptide (SEQ ID NO:2) or a scrambled ψεRACK peptide (SEQ ID NO:4) were delivered to the hearts via the coronary arteries using 0.5 μM of peptide for 20 minutes.
To induce global ischemia, flow to the hearts was interrupted for 45 minutes. The hearts were then reperfused for 30 minutes. During reperfusion, ischemic-induced cell damage was determined by measuring the activity of creatine phosphokinase (absorbance at 520 nm) in the perfusate. […]
Mice or rats were anesthetized with i.p. avertin, and their hearts were rapidly removed and cannulated via the aorta for reperfusion as described in the art (Colbert et al, 1997). […] The left ventricular pressure and real-time derivative (dP/dt) were monitored via a catheter placed in the ventricular apex. […]
To induce global ischemia, flow was interrupted for 45 minutes. […] During reperfusion, ischemia-induced cell damage was determined by measuring the activity of creatine phosphokinase (CPK) (absorbance at 520 nm) in the perfusate using a Sigma kit.

[3] abbreviates: pigs, 5 days post ischemia and treatment.

For “HDAPIGYD (pseudo-epsilon RACK octapeptide) [ψεRACK, ψεRACK octapeptide, εPKC specific agonist peptide]”, in the assay with ex vivo hearts, the coronary perfusion pressure entry was “reduced” and the “elevated LVP end diastolic pressure” value is recorded as “reduced”. Also, the “infarct of area at risk” value with pig heart [1] stood at 14.9±6%. In the assay on pig heart [1] (infarct area as percent of area at risk, in grams of cardiac tissue, FIG. 4C), the “reduction of percent infarct versus scrambled peptide control” value is on record as “more than 2 fold”. Moreover, in the assay on pig heart [2] (pigs n=5, 5 μM/10 mL ψεRACK, immediately after reperfusion, FIG. 5), the “ejection fraction after occlusion compared to control animals treated with scrambled peptide” value is recorded as “higher ejection fraction”. Besides, in the assay on pig heart [2] (setting [3]), the “ejection fraction compared with that before ischemia” value is “on par with that measured prior to ischemia” and the “ejection fraction higher than the untreated animals” value was “about 10%”. Besides, in the assay with whole rat hearts, the “lower total CPK release versus untreated hearts” value is listed as about 2 fold. The “creatine phosphokinase (CPK) release during reperfusion” value in the assay on ex vivo rat hearts was “close to the control hearts maintained under normoxia conditions”.

Turning to “PDYHDAGI (scrambled pseudo-epsilon RACK octapeptide) [scrambled ψεRACK, scrambled ψεRACK octapeptide, negative control, reference compound]”, the “infarct of area at risk” value with pig heart [1] worked out at 36.5±0.3%. In addition, the “creatine phosphokinase (CPK) release during reperfusion” value in the assay with ex vivo rat hearts is given as “significant release of CPK”.

These data come from US8592363B2, “ψεrack peptide composition and method for protection against tissue damage due to ischemia” (The Board of Trustees of the Leland Stanford Junior …, priority 2000, dated 2013).
